# Key:
# [1] = test system: HT-29 human colon cancer cells; test: In vivo anti-tumor efficacy, HT-29 xenograft; details: HT-29 s.c. in nu/nu Balb/c athymic mice, 50 mg/kg once per day oral gavage
# Protocol: (§1) Female (nu/nu) Balb/c athymic mice at 4-6 weeks of age were injected subcutaneously (s.c.) with MDA-MB-231 human breast cancer cells, A549 human non-small cell lung cancer cells, BEL7401 human liver cancer cells, HT-29 human colon cancer cells, or MKN-45 human gastric cancer cells (ATCC, 5×10^6 cells suspended in 100 μl DMEM medium). Treatment was initiated after the tumor mass grown from subcutaneous implanted tumor cells reaches a median volume of 200-400 mm^3. Mice were randomized into groups with three in each group such that the median tumor volume is nearly equal among all groups. […] Tumor volumes were assessed at least twice weekly by caliper measurement from the start of treatment. Tumor volume was calculated using the formula ½×L×W^2 (L: length of tumor's long axis, W: length of tumor's short axis). […] The efficacy of compounds in reducing tumor growth was assessed by the index Tumor Growth Inhibition (TGI). TGI for a given treatment period was calculated using the group mean tumor volumes according to the formula: TGI=100×(Vvehicle—group−VTreatment—group)÷VVehicle—group wherein VVehicle—group representing the mean tumor volume for the group treated with vehicle and VTreatment—group representing the mean tumor volume of the group treated with a compound.
# [2] = Oral bioavailability study, Group 2 (rats); assay type: in vivo, male SD rat
# Protocol: Oral pharmacokinetic studies on rats were performed on Example 2, this compound was dissolved in PEG-400 (2:1 mixture of PEG400 and 0.01N HCL (v/v)) and administered orally to male SD rat at a dose of 50 mg/kg. Rat blood was obtained from tail vein at 0.25, 0.5, 1, 2, 3, 4, 6, 8, 12, and 24 hours after administration. The blood concentration of Example 2 was determined using appropriate internal standards and reverse phase HPLC with UV detection. Control blood samples were also run to identify compound-specific peaks. The oral bioavailability was determined by comparing the dose corrected areas under plasma-concentration time curve (AUC) to infinity for Example 2, given orally and intravenously in rats.
# [3] = test system: MKN-45 human gastric cancer cells; test: In vivo anti-tumor efficacy, MKN-45 xenograft; details: MKN-45 s.c. in nu/nu Balb/c athymic mice, 50 mg/kg once per day oral gavage
# Protocol: as §1
# [4] = test system: MDA-MB-231 human breast cancer cells; test: In vivo anti-tumor efficacy, MDA-MB-231 xenograft; details: MDA-MB-231 s.c. in nu/nu Balb/c athymic mice, 50 mg/kg once per day oral gavage
# Protocol: as §1
# BEL7404 = test: In vivo anti-tumor efficacy, BEL7404 xenograft; set-up: species or system human; details: Liver cancer, BEL7404 s.c. in nu/nu Balb/c athymic mice, 50 mg/kg once per day oral gavage
# [5] = Oral bioavailability study, Group 1 (mice); assay type: in vivo, male ICR mice
# Protocol: Oral pharmacokinetic studies were performed on Example 2. Specifically, this compound was dissolved in PEG-400 (2:1 mixture of PEG400 and 0.01N HCL (v/v)) and administered orally to male ICR mice at a dose of 50 mg/kg. Mice blood was obtained via eyeball enucleation at 0.25, 0.5, 1, 2, 3, 4, 6, 8, 12 and 24 hours after administration. The concentration of Example 2 in blood was determined using appropriate internal standards and reverse phase HPLC with UV detection.
# Control blood samples were also used to identify compound-specific peaks. The oral bioavailability was determined by comparing the dose corrected areas under plasma-concentration time curve (AUC) to infinity for Example 2, given orally and intravenously in mice.
structure (smiles),measurement,setting,value
"Cl.[2H]C([2H])(c1ccnc(N)c1)n1ccc2c(NC(=O)Nc3cc(Cl)ccc3OC)cccc21 [Example 2, 1-[1-[(2-amino-4-pyridyl)-dideuteriomethyl]indol-4-yl]-3-(5-chloro-2-methoxyphenyl)urea hydrochloride]",Tumor Growth Inhibition (TGI),[1],A (the TGI is greater or equal to 50%)
same,bioavailability,"[2]; plasma, male SD rat, 50 mg/kg oral, AUC to infinity oral vs intravenous",> 67%
same,amount detected in blood after oral dosing,"[2]; rat study, 0.25 hours after 50 mg/kg oral dosing",substantial amounts
same,half-life,"[2]; whole blood, male SD rat, 50 mg/kg oral",2 to 3 h
same,Tumor Growth Inhibition (TGI),[3],A (the TGI is greater or equal to 50%)
same,Tumor Growth Inhibition (TGI),[4],A (the TGI is greater or equal to 50%)
same,Tumor Growth Inhibition (TGI),BEL7404,A (the TGI is greater or equal to 50%)
same,amount detected in blood after oral dosing,"[5]; mice, 0.25 hour after 50 mg/kg oral dosing",substantial amounts
same,bioavailability,"[5]; mouse, plasma, male ICR mice, 50 mg/kg oral, AUC to infinity oral vs intravenous",> 88%
same,half-life,"[5]; mouse, whole blood, male ICR mice, 50 mg/kg oral",2.3 to 3.5 h

# From patent publication US20130165475A1, “DEUTERIUM-ENRICHED HETEROCYCLIC COMPOUNDS AS KINASE INHIBITORS” (ASCEPION PHARMACEUTICALS, INC., priority 2010, published 2013)
